Test results taken from the NIST ThermoML archive (doi:10.1021/je8003595).
± gives the expanded uncertainty stated by the source.

Assays:
[1] = 101 kPa, Liquid; for viscosity: Capillary tube (Ostwald / Ubbelohde) method
[2] = mn = molality of the nth substance listed, in mol/kg; conditions: 101 kPa, Liquid, m2 = 0; for viscosity: Capillary tube (Ostwald / Ubbelohde) method

**Q.** With `CC#N` [acetonitrile] as the compound, how does the mass density ([1]; 293.15 K) read?
**A.** 782.499 ± 0.5 kg/m3

**Q.** And the viscosity ([1]; 293.15 K)?
**A.** 0.3081 ± 0.0065 mPa·s

**Q.** And the mass density ([1]; 298.15 K)?
**A.** 777.099 ± 0.51 kg/m3

**Q.** And the viscosity ([1]; 298.15 K)?
**A.** 0.2857 ± 0.0065 mPa·s

**Q.** And the mass density ([1]; 303.15 K)?
**A.** 771.674 ± 0.52 kg/m3

**Q.** What about the viscosity ([1]; 303.15 K) of the same compound?
**A.** 0.2642 ± 0.0064 mPa·s

**Q.** What about the mass density ([1]; 308.15 K) of the same compound?
**A.** 766.217 ± 0.53 kg/m3

**Q.** And the viscosity ([1]; 308.15 K)?
**A.** 0.2444 ± 0.0064 mPa·s

**Q.** And the mass density ([1]; 310.15 K)?
**A.** 763.991 ± 0.53 kg/m3

**Q.** And the viscosity ([1]; 310.15 K)?
**A.** 0.2374 ± 0.0064 mPa·s

**Q.** And the mass density ([1]; 313.15 K)?
**A.** 760.702 ± 0.53 kg/m3

**Q.** And the viscosity ([1]; 313.15 K)?
**A.** 0.2267 ± 0.0063 mPa·s

**Q.** For `CC#N` [acetonitrile] + O=C(Oc1ccccc1)c1ccccc1O, which viscosity ([2]; 293.15 K) is on record?
**A.** 0.3081 ± 0.0065 mPa·s

**Q.** What about the mass density ([2]; 293.15 K) of the same compound?
**A.** 782.499 ± 0.5 kg/m3

**Q.** And the viscosity ([2]; 298.15 K)?
**A.** 0.2857 ± 0.0065 mPa·s

**Q.** And the mass density ([2]; 298.15 K)?
**A.** 777.099 ± 0.51 kg/m3

**Q.** And the viscosity ([2]; 303.15 K)?
**A.** 0.2642 ± 0.0064 mPa·s

**Q.** And the mass density ([2]; 303.15 K)?
**A.** 771.674 ± 0.52 kg/m3

**Q.** And the viscosity ([2]; 308.15 K)?
**A.** 0.2444 ± 0.0064 mPa·s

**Q.** What about the mass density ([2]; 308.15 K) of the same compound?
**A.** 766.217 ± 0.53 kg/m3

**Q.** And the viscosity ([2]; 310.15 K)?
**A.** 0.2374 ± 0.0064 mPa·s

**Q.** What about the mass density ([2]; 310.15 K) of the same compound?
**A.** 763.991 ± 0.53 kg/m3

**Q.** And the viscosity ([2]; 313.15 K)?
**A.** 0.2267 ± 0.0063 mPa·s

**Q.** And the mass density ([2]; 313.15 K)?
**A.** 760.702 ± 0.53 kg/m3
